Results as given in patent publication US20230117155A1, “FRACTION EXTRACT OF MELISSA OFFICINALIS LEAVES AND NOVEL PHARMACEUTICAL COMPOSITION INCLUDING SAME” (priority 2020, published 2023).
Entries after “also recorded” stand apart in the source; their conditions may differ.

Tested on: HUVECs (human umbilical vein endothelial cells)
Assay: HUVEC tube formation, angiogenesis inhibitory activity assay
Format: cell-based
Conditions: single ingredient, final concentration 50 μg/ml; FIG. 9
Experimental: A 48-well plate was coated with 200 μl of 10% matrigel, and incubated at 4° C. After 4 hours the temperature was raised to 37° C., and 1 hour later, the test substances listed in Tables 2 and 3 below were added to a final concentration of 50 μg/ml, and then 5×10^4 HUVECs (human umbilical vein endothelial cells) were added to each well, and pictures were taken the next day.

| Compound | angiogenesis inhibitory activity in HUVEC tube formation assay |
| --- | --- |
| CCOC(=O)Cc1ccc(O)c(O)c1 [EDPA, Ethyl 2-(3,4-dihydroxyphenyl) acetate] | angiogenesis inhibitory activities; also recorded: highest angiogenesis inhibitory activity |
| COC(=O)[C@@H](Cc1ccc(O)c(O)c1)OC(=O)/C=C/c1ccc(O)c(O)c1 [RME, Rosmarinic acid methyl ester] | angiogenesis inhibitory activities |
| O=C(/C=C/c1ccc(O)c(O)c1)O[C@H](Cc1ccc(O)c(O)c1)C(=O)O [Rosmarinic acid] | angiogenesis inhibitory activities |
| O=C(O)/C=C/c1ccc(O)c(O)c1 [caffeic acid] | angiogenesis inhibitory activities |
